Values joined by “and” are separate entries in the source; they are usually repeats but may differ in a detail not shown here. Equal entries are not always repeated.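 Values below derive from 48-hour exposures of cells grown in 96-well plates, with endpoints linearly interpolated between the two concentrations bracketing the appropriate inhibition level. GI50 is the concentration that inhibits growth by half. TGI is the concentration that stops growth completely.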
System: MDA-MB-468 breast
Experiment: NCI anticancer screen, dose series, 48 h

SMILES: COc1ccc2[nH]cc(-c3nc(-c4c[nH]c5ncccc45)cs3)c2c1
- GI50: 2.69 µM
- TGI: > 100 µM

SMILES: COC12C=C/C(=C(/C(=O)OCc3ccncc3)C(=O)CCCCCCCCC3(OC)C=C/C(=C(/C(=O)OCc4ccncc4)C(=O)CCCCCCCC1)O3)O2
- GI50: 0.635 µM
- TGI: 2 µM

SMILES: Nc1nccc2c1ccn2-c1ccc(NC(=O)c2ccc(N3CCOCC3)c(C(F)(F)F)c2)cc1
- GI50: 2.16 µM
- TGI: 16.5 µM

SMILES: CC1(C)OCCn2c1nc1c(N3CCOCC3)nc(-c3cnc(N)nc3)nc12
- GI50: 0.339 µM
- TGI: 2.6 µM

SMILES: O=C(c1ccc(F)c(F)c1Nc1ccc(I)cc1F)N1CC(O)([C@@H]2CCCCN2)C1
- GI50: 3.75 µM and 1.79 µM
- TGI: 16.2 µM and > 8.97 µM

SMILES: Cc1csc(Nc2nc(-c3cccc(Br)c3)nc(C(Cl)(Cl)Cl)n2)n1
- GI50: 0.354 µM
- TGI: 1.55 µM

SMILES: CS(=O)(=O)CCCn1c(=O)c(Oc2ccc(F)cc2F)cc2cnc(NC3CCOCC3)nc21
- GI50: > 25 µM
- TGI: > 25 µM

SMILES: Cc1nc2cnc(N)c(C#Cc3cncc(C(=O)Nc4ccc(CN5CCN(C)CC5)c(C(F)(F)F)c4)c3)c2nc1C
- GI50: 2.25 µM
- TGI: 15.9 µM

SMILES: COc1cc(C2c3cc4c(cc3C(O)C(CO)C2CO)OCO4)cc(OC)c1OC (stereo not drawn)
- GI50: 0.27 µM

SMILES: COc1cc(CNCCCN2C(=O)c3ccc4c5c(ccc(c35)C2=O)C(=O)N(CCCNCc2cc(OC)c(OC)c(OC)c2)C4=O)cc(OC)c1OC
- GI50: 0.153 µM
- TGI: 0.406 µM

SMILES: Cn1cc(C2=C(c3cn(C)c4cc(C(N)=O)ccc34)C(=O)NC2=O)c2ccccc21
- GI50: 1.18 µM
- TGI: 15.9 µM

SMILES: O=c1cc2oc3cc(O)c(O)cc3c(-c3ccccc3O)c-2cc1O
- GI50: 12.6 µM
- TGI: 42.6 µM

SMILES: CCOC(=O)C(=Cc1cccc(Cl)c1)C(=O)OCC
- GI50: 1.81 µM
- TGI: 3.85 µM

SMILES: Nc1c(C(=O)Nc2cccc(Br)c2)sc2nc3c(cc12)C(=O)CCC3
- GI50: 0.259 µM
- TGI: > 100 µM

SMILES: COc1cccc2c1C(=O)c1c(O)c3c(c(O)c1C2=O)CC(O)(/C(C)=N/NC(=O)CCC(=O)N/N=C(\C)C1(O)Cc2c(O)c4c(c(O)c2C(OC2CC(N)C(O)C(C)O2)C1)C(=O)c1c(OC)cccc1C4=O)CC3OC1CC(N)C(O)C(C)O1 (stereo not drawn)
- GI50: 0.101 µM
- TGI: 0.34 µM

SMILES: Cc1ccc(/C=C/c2c(C(=O)/C=C/c3ccc(C(F)(F)F)cc3)c(C)nc3ccccc23)cc1
- GI50: 1.84 µM
- TGI: 3.53 µM

SMILES: CC(=O)c1cc2c(o1)C(=O)c1ccccc1C2=O
- GI50: 0.912 µM and 1.26 µM
- TGI: 2.54 µM and 2.8 µM

SMILES: COc1ccncc1C#Cc1cncc(C(=O)Nc2ccc(CN3CCN(C)CC3)c(C(F)(F)F)c2)c1
- GI50: 24.7 µM
- TGI: > 100 µM

SMILES: Cn1cnc([N+](=O)[O-])c1S(=O)(=O)Oc1ccccc1
- GI50: 1.95 µM
- TGI: 4.68 µM

SMILES: COc1cc(-c2nn(-c3cccc(NC(=O)Nc4ccc(Cl)c(Cl)c4)c3)cc2-c2ccncc2)ccc1Cl
- GI50: 0.567 µM
- TGI: 2.27 µM

SMILES: N=c1ccn2c(n1)OC1C(O)C(CO)OC12 (stereo not drawn)
- GI50: > 100 µM
- TGI: > 100 µM

SMILES: N#Cc1c(-c2ccc(F)cc2)c(-c2ccc(F)cc2)nn(CCO)c1=O
- TGI: > 100 µM

SMILES: CCCCCCNC(=O)c1nc(-c2ccccc2)oc1Cc1ccc(OP(=O)(O)O)cc1
- GI50: 14.3 µM
- TGI: 28.2 µM

SMILES: O=C(c1c(F)ccc(NS(=O)(=O)N2CC[C@@H](F)C2)c1F)c1c[nH]c2ncc(-c3cnc(C4CC4)nc3)cc12
- GI50: 3.93 µM and 3.67 µM
- TGI: > 10 µM and 27.9 µM

SMILES: O=c1[nH]c(=O)n(C2CC(O)C(CO)O2)cc1CO (stereo not drawn)
- GI50: > 100 µM
- TGI: > 100 µM

SMILES: O=C1c2c(c3c4cc(Br)ccc4[nH]c3c3ccc4ccccc4c23)C(=O)N1CCN1CCCCC1
- GI50: 1.62 µM
- TGI: 3.52 µM

SMILES: C[C@H]1Oc2cc(cnc2N)-c2c(nn(C)c2C#N)CN(C)C(=O)c2ccc(F)cc21
- GI50: 30.8 µM
- TGI: > 100 µM

SMILES: C=CC(=O)N1CCC(C2CCNc3c(C(N)=O)c(-c4ccc(Oc5ccccc5)cc4)nn32)CC1 (stereo not drawn)
- GI50: 0.752 µM
- TGI: 8.52 µM

SMILES: N#C/C=C(\c1ccc([N+](=O)[O-])cc1)n1nnc2cc(Cl)c(Cl)cc21
- GI50: 1.37 µM
- TGI: 3.33 µM

SMILES: CC(C)=CCc1cc(O)cc2c1OC(C=C(C)C)C1=C2C(=O)C2=C(NCCS2(=O)=O)C1=O (stereo not drawn)
- GI50: 2.54 µM
- TGI: 7.89 µM
